Experimental data as given in patent US9598398B2, “Heterocyclic compound” (TAKEDA PHARMACEUTICAL COMPANY LIMITED, priority 2013, dated 2017).

Target: T1, human CH24H (Homo sapiens, UniProt Q9Y6A2)
T1 construct: Using Full-Length Mammalian Gene Collection No. 4819975 (Invitrogen) as a template; made in house; host or cells: FreeStyle 293-F cells, transient transfection with pcDNA3.1(+)/hCH24H; crude lysate supernatant
Assay: Measurement of CH24H inhibitory activity (24-HC produced from [14C] cholesterol by human CH24H lysate)
Format: biochemical
Details: test compound 1 μM, [14C] cholesterol 15 μM, 37° C., 5 hr, read-out: Inhibitory Rate in 1 μM (%)
Experimental: A plasmid DNA for expressing human CH24H in a FreeStyle 293 cell was produced as follows. Using Full-Length Mammalian Gene Collection No. 4819975 (Invitrogen) as a template, and the following two kinds of synthesized DNAs:
PCR was performed to amplify 91-1625 bp region of human CH24H (BCO22539). The obtained fragment was cloned using TOPO TA Cloning Kit (Invitrogen). The obtained fragment was subcloned to pcDNA3.1(+) digested with BamHI and XhoI to give a plasmid DNA for human CH24H expression (pcDNA3.1(+)/hCH24H).
The expression of human CH24H was performed using FreeStyle 293 Expression System (Invitrogen). According to the manual attached to FreeStyle 293 Expression System and using the plasmid DNA for human CH24H expression (pcDNA3.1(+)/hCH24H) constructed in Experimental Example 1, a transient expression using FreeStyle 293-F cell was performed. After transfection, the cells were cultured at 37° C., 8% CO2 with shaking at 125 rpm for 2 days. The cells were collected by centrifugation, and suspended in a suspension buffer (100 mM potassium phosphate (pH 7.4), 0.1 mM EDTA, 1 mM DTT, 20% Glycerol). The suspended product was disrupted by a polytron homogenizer (manufactured by Kinematica), and centrifuged at 9000×g for 10 min, and the supernatant was collected. The collected supernatant was cryopreserved (−80° C.) as a human CH24H lysate standard product.
For the measurement of CH24H inhibitory activity, using the human CH24H lysate prepared in Experimental Example 2, the amount of 24-HC produced from cholesterol by catalytic activity of CH24H was measured in the presence of a test compound, and compared with that measured in the absence of the test compound. That is, a test compound solution at various concentrations was mixed with a reaction buffer (50 mM potassium phosphate containing 0.1% BSA and Complete, EDTA-free, pH 7.4) and human CH24H lysate. Then, [^14C] cholesterol (53 mCi/mmol specific activity, 15 μM) was added, and CH24H reaction was performed at 37° C. for 5 hr. After completion of the reaction, a quenching solution consisting of chloroform/methanol/distilled water (2:2:1 v/v) was added, and the resulting 24-HC was extracted by shaking. The extract was applied to silica gel thin layer chromatography (ethyl acetate:toluene=4:6), and the obtained ^14C-24HC fraction was measured with BAS2500 (Fujifilm Corporation).
The inhibitory rate (%) was calculated from the ratio of radioactivity in the presence of a test compound relative to the radioactivity in the absence of the test compound.

T1 sequence (Q9Y6A2 whole entry): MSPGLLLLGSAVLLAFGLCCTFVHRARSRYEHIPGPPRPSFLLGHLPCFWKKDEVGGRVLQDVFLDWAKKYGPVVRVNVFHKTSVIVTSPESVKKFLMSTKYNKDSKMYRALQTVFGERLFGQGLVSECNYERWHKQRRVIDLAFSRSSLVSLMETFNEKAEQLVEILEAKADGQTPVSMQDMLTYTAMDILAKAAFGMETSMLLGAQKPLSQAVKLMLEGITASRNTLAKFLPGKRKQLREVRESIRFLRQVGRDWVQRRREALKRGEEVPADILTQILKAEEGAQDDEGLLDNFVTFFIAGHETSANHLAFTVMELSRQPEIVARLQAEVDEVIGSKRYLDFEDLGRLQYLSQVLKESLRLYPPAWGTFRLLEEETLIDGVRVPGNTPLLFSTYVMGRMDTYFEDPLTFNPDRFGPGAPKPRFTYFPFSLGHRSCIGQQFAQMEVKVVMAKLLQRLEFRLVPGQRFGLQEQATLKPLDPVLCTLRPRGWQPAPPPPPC

Row | Compound | inhibition at 1 µM [%]
1 | COc1ccc(CN2CCN(C(=O)c3cc(C)ccc3-c3ccncc3)CC2)cc1 [Example 3, (4-(4-methoxybenzyl)piperazin-1-yl)(5-methyl-2-(pyridin-4-yl)phenyl)methanone] | 87
2 | c1ccc(CN2CCC(Oc3cccnc3-c3ccncc3)CC2)cc1 [Example 4, 3-((1-benzylpiperidin-4-yl)oxy)-2,4′-bipyridine] | 86
3 | Fc1ccc(OC2CCN(Cc3ccccc3)CC2)c(-c2ccncc2)c1 [Example 5, 4-(2-((1-benzylpiperidin-4-yl)oxy)-5-fluorophenyl)pyridine] | 92
4 | c1ccc(CN2CCC(Oc3ccccc3-c3ccncn3)CC2)cc1 [Example 15, 4-(2-((1-benzylpiperidin-4-yl)oxy)phenyl)pyrimidine] | 94
5 | Cn1ccnc1CN1CCC(Oc2ccccc2-c2ccncc2)CC1 [Example 16, 4-(2-((1-((1-methyl-1H-imidazol-2-yl)methyl)piperidin-4-yl)oxy)phenyl)pyridine] | 93
6 | CN(C)C(=O)CN1CCC(Oc2ccccc2-c2ccncc2)CC1 [Example 20, N,N-dimethyl-2-(4-(2-(pyridin-4-yl)phenoxy)piperidin-1-yl)acetamide] | 83
7 | Cn1cc(CN2CCC(Oc3cccnc3-c3ccncc3)CC2)cn1 [Example 22, 3-((1-((1-methyl-1H-pyrazol-4-yl)methyl)piperidin-4-yl)oxy)-2,4′-bipyridine] | 89
8 | COc1ccc(CN2CCN(S(=O)(=O)c3ccc(F)cc3-c3ccncc3)CC2)cc1 [Example 29, 1-((4-fluoro-2-(pyridin-4-yl)phenyl)sulfonyl)-4-(4-methoxybenzyl)piperazine] | 59
9 | FC1(F)CN(Cc2ccccc2)CCC1Oc1ccccc1-c1ccncn1 (stereo not shown) [Example 34, 4-(2-((1-benzyl-3,3-difluoropiperidin-4-yl)oxy)phenyl)pyrimidine] | 91
10 | O=C(CN1CCC(Oc2cccnc2-c2ccncc2)CC1)N1CCOCC1 [Example 38, 2-(4-(2,4′-bipyridin-3-yloxy)piperidin-1-yl)-1-(morpholin-4-yl)ethanone] | 84
11 | Cn1cc(CN2CCC(Oc3nccnc3-c3ccncc3)CC2)cn1 [Example 40, 2-((1-((1-methyl-1H-pyrazol-4-yl)methyl)piperidin-4-yl)oxy)-3-(pyridin-4-yl)pyrazine] | 88
12 | c1cnc(-c2ccncc2)c(OC2CCN(Cc3cscn3)CC2)c1 [Example 47, 3-((1-(1,3-thiazol-4-ylmethyl)piperidin-4-yl)oxy)-2,4′-bipyridine] | 90
13 | CCN(CC)C(=O)CN1CCC(Oc2cccnc2-c2ccncc2)CC1 [Example 49, 2-(4-(2,4′-bipyridin-3-yloxy)piperidin-1-yl)-N,N-diethylacetamide] | 85

The remaining lines, values ahead:

Row | inhibition at 1 µM [%] | Compound
14 | 79 | CN(C)C(=O)CN1CCC(Oc2nccnc2-c2ccncc2)C(F)(F)C1 (stereo not shown) [Example 54, 2-(3,3-difluoro-4-((3-(pyridin-4-yl)pyrazin-2-yl)oxy)piperidin-1-yl)-N,N-dimethylacetamide]
15 | 53 | O=C1CN(Cc2ccc(F)cc2)CCN1Cc1cccnc1-c1ccncc1 [Example 55, 1-(2,4′-bipyridin-3-ylmethyl)-4-(4-fluorobenzyl)piperazin-2-one]
16 | 89 | c1ccc(CN2CCC(Oc3cccnc3-c3ccncc3)C2)cc1 (stereo not shown) [Example 61, 3-((1-benzylpyrrolidin-3-yl)oxy)-2,4′-bipyridine]
17 | 92 | COc1ccc(S(=O)(=O)N2CCC(Oc3cccnc3-c3ccncc3)C2)cc1 (stereo not shown) [Example 64, 3-((1-((4-methoxyphenyl)sulfonyl)pyrrolidin-3-yl)oxy)-2,4′-bipyridine]
18 | 80 | O=C(C1CC1)N1CCC(Oc2cccnc2-c2ccncc2)CC1 [Example 67, (4-(2,4′-bipyridin-3-yloxy)piperidin-1-yl)(cyclopropyl)methanone]
19 | 89 | Cn1cc(S(=O)(=O)N2CCC(Oc3cccnc3-c3ccncc3)C2)cn1 (stereo not shown) [Example 71, 3-((1-((1-methyl-1H-pyrazol-4-yl)sulfonyl)pyrrolidin-3-yl)oxy)-2,4′-bipyridine]
20 | 88 | COc1ccc(CC(=O)N2CCC(Oc3ccccc3-c3ccncn3)CC2)cc1 [Example 74, 2-(4-methoxyphenyl)-1-(4-(2-(pyrimidin-4-yl)phenoxy)piperidin-1-yl)ethanone]
21 | 87 | Cn1cc(S(=O)(=O)N2CCC(Oc3cc(F)ccc3-c3ccncn3)C2)cn1 (stereo not shown) [Example 84, 4-(4-fluoro-2-((1-((1-methyl-1H-pyrazol-4-yl)sulfonyl)pyrrolidin-3-yl)oxy)phenyl)pyrimidine]
22 | 84 | O=S(=O)(N1CCOCC1)N1CCC(Oc2cccnc2-c2ccncc2)C1 (stereo not shown) [Example 85, 3-((1-(morpholin-4-ylsulfonyl)pyrrolidin-3-yl)oxy)-2,4′-bipyridine]
23 | 82 | CCS(=O)(=O)N1CCC(Oc2cc(F)ccc2-c2ccncc2)C1 (stereo not shown) [Example 88, 4-(2-((1-(ethylsulfonyl)pyrrolidin-3-yl)oxy)-4-fluorophenyl)pyridine]
24 | 89 | O=S(=O)(c1ccc(F)cc1)N1CCC(Oc2nccnc2-c2ccncc2)C1 (stereo not shown) [Example 110, 2-((1-((4-fluorophenyl)sulfonyl)pyrrolidin-3-yl)oxy)-3-(pyridin-4-yl)pyrazine]
25 | 94 | O=S(=O)(c1ccccc1)N1CCC(Oc2cccnc2-c2ccncc2)C1 (stereo not shown) [Example 120, 3-((1-(phenylsulfonyl)pyrrolidin-3-yl)oxy)-2,4′-bipyridine]
26 | 95 | c1ccc(CN2CCC(Oc3cccnc3-c3ccncc3)CC2)nc1 [Example 124, 3-((1-(pyridin-2-ylmethyl)piperidin-4-yl)oxy)-2,4′-bipyridine]

Test system: 24-HC in the brain extract
Assay: Quantification test of 24-HC in mouse brain after repeated oral administration
Format: in vivo
Details: 10 mg/kg orally once a day for 3 days, female C57BL/6N mice; brain 24-HC at 16 hours after the third administration; relative to control group as 100%
Experimental: Animals used were 6-week-old female C57BL/6N mice (3 mice/group). A test compound was suspended in a 0.5% aqueous methylcellulose [133-14255 WAKO] solution (1 mg/mL). The body weight of the mice was measured, and the solution was forcibly administered orally and repeatedly once a day for 3 days. At 16 hours after the third administration, half of the brain was harvested, and the amount of 24-HC was measured.
The wet weight of the brain was measured, and the brain was homogenized with 4-fold amount of saline. This solution was used as a brain extract. The 24-HC in the brain extract was extracted with an acetonitrile solution (98% acetonitrile, 1.98% methanol, 0.02% formic acid), and quantified by HPLC. The average value of 24-HC amount was calculated and the results are shown in relative values with the control group as 100%.

Row | Compound | Brain 24-HC level relative to control (%)
27 | Cn1cc(CN2CCC(Oc3nccnc3-c3ccncc3)CC2)cn1 [Example 40, 2-((1-((1-methyl-1H-pyrazol-4-yl)methyl)piperidin-4-yl)oxy)-3-(pyridin-4-yl)pyrazine] | 84
28 | c1cnc(-c2ccncc2)c(OC2CCN(Cc3cscn3)CC2)c1 [Example 47, 3-((1-(1,3-thiazol-4-ylmethyl)piperidin-4-yl)oxy)-2,4′-bipyridine] | 75
29 | CN(C)C(=O)CN1CCC(Oc2nccnc2-c2ccncc2)C(F)(F)C1 (stereo not shown) [Example 54, 2-(3,3-difluoro-4-((3-(pyridin-4-yl)pyrazin-2-yl)oxy)piperidin-1-yl)-N,N-dimethylacetamide] | 73

Same assay, conditions: 30 mg/kg orally once a day for 3 days, female C57BL/6N mice; brain 24-HC at 16 hours after the third administration; relative to control group as 100%

Row | Compound | Brain 24-HC level relative to control (%)
30 | Cn1cc(CN2CCC(Oc3cccnc3-c3ccncc3)CC2)cn1 [Example 22, 3-((1-((1-methyl-1H-pyrazol-4-yl)methyl)piperidin-4-yl)oxy)-2,4′-bipyridine] | 77
31 | Cn1cc(S(=O)(=O)N2CCC(Oc3cccnc3-c3ccncc3)C2)cn1 (stereo not shown) [Example 71, 3-((1-((1-methyl-1H-pyrazol-4-yl)sulfonyl)pyrrolidin-3-yl)oxy)-2,4′-bipyridine] | 86
